Results on one compound are retold here after patent US12162861B2, “Dopamine D3 receptor selective antagonists/partial agonists; method of making; and use thereof” (THE UNITED STATES OF AMERICA, AS REPRESENTED BY THE …, priority 2016, dated 2024).

“Also recorded” adds a separate entry of the source.

Data set [1] is described as follows: Sucrose self-administration. The class given is in vivo. Conditions: pretreatment (±)-29 15 and 25 mg/kg, (±)-19 1 and 5 mg/kg.
The test system of data set [2] is Long-Evans rats. Put plainly: Oxycodone self-administration in rats. The class given is in vivo, rat. To be noted: for oxycodone self-administration (oxycodone taking): FR1, 5-25 mg/kg i.p., FIG. 3A. The procedure: MATERIALS AND METHODS: Male Long-Evans rats (Charles-River, Raleigh, N.C.) were used. […] All the experimental procedures were consistent with the “Principles of Laboratory Animal Care” published by National Institutes of Health (NIH publication 86-23, 1996) and were approved by the NIDA Animal Care and Use Committee.
Surgery: Rats (300-350 g) used for oxycodone self-administration were first implanted with an intravenous catheter. They were anaesthetized with pentobarbital (30 mg/kg i.p.) supplemented with chloral hydrate (140 mg/kg, i.p.). A small incision was next made to the right of the midline of the neck and the external jugular vein was externalized and an i.v. catheter, made of microrenathane (Braintree Scientific Inc., Braintree, MA, USA) was inserted with its tip reaching right atrium. The catheter was secured to the vein with silk suture and the other end fed subcutaneously around the back of the neck to exit near the back of the skull. The end was slipped over a bent 24-gauge stainless steel cannula (Plastic One Inc., Roanoke, VA, USA) with a threaded head used to secure a dummy cannula and, during experimentation, an infusion line. The catheter and the guide cannula were then secured to the skull with four stainless steel screws threaded into the skull and dental cement and the wound was sutured.
After surgery, the catheters were flushed daily with a gentamicin-heparin-saline solution (30 IU/ml heparin; ICN Biochemicals, Cleveland, OH, USA) as precaution against catheter clogging and infection. The animals were allowed to recover for at least 5 days before the behavioral training started.
Self-administration apparatus and oxycodone self-administration training: Rats in 3 experimental tests were first trained to self-administer oxycodone. The self-administration apparatus and procedures have been described previously (Xi et al., 2004, 2005). […] This infusion time was also served as a timeout period during which the light-tone cue was kept activated and animal' responses on the active lever were recorded but had no scheduled consequence. […]

The nature of data set [3]: Mouse microsomal stability assay. The class given is in vitro ADME. Conditions: mouse liver microsomes, Phase I, 10 μM compound, 0.5 mg/mL microsomes. The procedure:
Mouse Microsomal Stability Assay. […] The reaction was carried out with 100 mM potassium phosphate buffer, pH 7.4, in the presence of NADPH regenerating system, (compound final concentration was 10 μM; 0.5 mg/mL microsomes). Positive controls for phase I metabolism (testosterone) were also evaluated. Compound disappearance was monitored over time using a liquid chromatography and tandem mass spectrometry (LC/MS/MS) method. All reactions were sampled in triplicate. Chromatographic analysis was performed using an Accela ultra high-performance system consisting of an analytical pump and an autosampler coupled with a TSQ Vantage mass spectrometer (Thermo Fisher Scientific Inc., Waltham, MA). […] The mobile phase used was composed of 0.1% formic acid in acetonitrile and 0.1% formic acid in H2O with gradient elution, starting with 10% (organic) linearly increasing to 99% up to 2 min, maintaining at 99% (2-2.5 min) and reequilibrating to 10% by 2.7 min. The total run time for each analyte was 4.5 min.

For data set [4], the target named is opiate mu receptor (Homo sapiens, UniProt P35372). Description: Binding to opiate mu receptor.
The subject of data set [5] is rats. Description: Naloxone-precipitated conditioned place aversion in chronic oxycodone treated rats. The class given is in vivo, rat. Conditions: chronic oxycodone-treated rats, 5, 15 mg/kg, 1 hour prior to naloxone, FIG. 6. The text has this: The place-conditioning apparatus (Med Associates, St Albans, VT) consisted of two compartments (21×28 cm^2) linked by a gray connecting area (21×12.5 cm^2); a sliding door separated each compartment from the connecting area. The two end compartments differed in wall color (black vs white), floor type (grid vs net), and illumination; preference for the end compartments was balanced by using weaker illumination in the reflective (and normally less-preferred) white compartment and stronger illumination in the non-reflective black compartment. The paradigm was further ‘balanced’ by associating the training injections with the white side in half the animals and with the black side in the remaining animals.
The CPA procedures in this study were similar to those described by others (Azar et al., 2003; Olmstead and Burns 2005; 2012). Briefly, one day before drug treatments started, rats (200-250 g) were randomly divided into 6 groups and were allowed to explore their assigned conditioning apparatus for 15 min (preconditioning). […] CPA score was calculated as animals' time spent in drug-paired minus saline-paired compartments, Oxycodone HCl and naloxone HCl were purchased from Sigma Chemical Co. (Saint Louis, MO, USA) and were dissolved in physiological saline.

Data set [6] concerns Long-Evans rats. Description: Reinstatement of drug-seeking induced by oxycodone priming in rats. The class given is in vivo, rat. To be noted: 5-15 mg/kg i.p., oxycodone priming 1 mg/kg i.p. The procedure:
Experiment 3. […] After completion of self-administration training, three additional groups of animals were exposed to the extinction conditions, in which cocaine was replaced by saline, and the cocaine-associated cue-light and tone were turned off. Active lever-pressing led only to saline infusion. Daily 3 hr extinction sessions for each rat continued until lever presses ≤10 times per 3 h session for at least 3 consecutive days. […] Fifteen min after injection, they were given a priming injection of oxycodone (1 mg/kg i.p.) and immediately put into the self-administration chambers. Animals were allowed to press levers for another extinction session and their responses on the levers were recorded.

Chain of opiate mu receptor (P35372 whole entry): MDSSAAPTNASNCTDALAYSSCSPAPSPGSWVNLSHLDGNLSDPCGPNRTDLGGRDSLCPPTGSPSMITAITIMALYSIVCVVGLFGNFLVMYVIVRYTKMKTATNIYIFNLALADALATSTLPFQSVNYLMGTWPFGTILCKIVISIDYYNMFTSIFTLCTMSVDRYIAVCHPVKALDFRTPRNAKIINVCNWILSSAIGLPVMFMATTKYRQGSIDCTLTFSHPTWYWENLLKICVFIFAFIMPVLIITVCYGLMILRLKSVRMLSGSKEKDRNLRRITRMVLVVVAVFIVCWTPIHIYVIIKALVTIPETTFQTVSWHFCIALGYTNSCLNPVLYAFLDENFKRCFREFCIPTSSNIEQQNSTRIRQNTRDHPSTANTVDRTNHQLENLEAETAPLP

Regarding `CCc1cc(Cl)c(OC)c(N2CCN(CC(O)CCNC(=O)c3cc4ccccc4[nH]3)CC2)c1` (racemic) [Compound 29, N-(4-(4-(3-chloro-5-ethyl-2-methoxyphenyl)piperazin-1-yl)-3-hydroxybutyl)-1H-indole-2-carboxamide], the sucrose self-administration entry in data set [1] is recorded as “no significant effects on sucrose self-administration”. For the same compound, the “oxycodone self-administration (oxycodone taking)” value was “attenuated self-administration at 15 and 25 mg/kg” in data set [2]; “attenuating effects” in data set [2] (listed as (±)-29). In addition, in data set [2] (pretreatment 5-15 mg/kg i.p., oxycodone 0.05 mg/kg/infusion, effect at 15 mg/kg), the “acquisition of oxycodone self-administration, number of infusions” value was “significantly lower number of infusions of oxycodone”. Also, the “% remaining over 1 h” value in data set [3] is listed as over 80%. For the same compound, the “binding to opiate mu receptor” value in data set [4] is “does not bind”. Besides, the “naloxone-precipitated conditioned place aversion” value in data set [5] is “inhibits naloxone-precipitated conditioned place aversion; also recorded: significantly attenuated naloxone-precipitated conditioned place aversion”; in data set [5] (listed as (±)-29) it was “inhibition of naloxone-precipitated conditioned place aversion”. For the same compound, the “oxycodone-induced reinstatement to drug seeking” value in data set [6] (FIG. 4) is reported as “blocked oxycodone-induced reinstatement to drug seeking”; in data set [6] (FIG. 4, listed as (±)-29), “attenuating effects”.
